Experimental data taken from ChEMBL document CHEMBL5465560, “Selectivity Literature for EUbOPEN Chemogenomic Library” (2024).
Values belong to the compound of their own block, whether it stands above or below them.

Tests used:
[1] = biological target: T1, Casein kinase I isoform alpha-like (Homo sapiens) (UniProt Q8N752); experiment: Selectivity interaction (KinomeScan (DiscoverX)) EUB0000666a CSNK1A1L; settings: at 10 µM
T1 sequence (whole entry): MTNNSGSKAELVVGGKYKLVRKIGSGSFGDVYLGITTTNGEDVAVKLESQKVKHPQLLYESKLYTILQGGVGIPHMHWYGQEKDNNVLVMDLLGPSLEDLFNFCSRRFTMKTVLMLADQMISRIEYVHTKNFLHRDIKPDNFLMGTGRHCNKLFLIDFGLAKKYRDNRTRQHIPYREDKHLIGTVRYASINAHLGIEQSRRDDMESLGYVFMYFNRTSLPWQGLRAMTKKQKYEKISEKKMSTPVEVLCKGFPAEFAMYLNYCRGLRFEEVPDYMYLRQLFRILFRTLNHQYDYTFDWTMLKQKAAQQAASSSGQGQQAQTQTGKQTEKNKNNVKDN

[2] = biological target: Leucine-rich repeat serine/threonine-protein kinase 2 (Homo sapiens, UniProt Q5S007); experiment: (§1) Selectivity interaction (KinomeScan (DiscoverX)) EUB0000607a LRRK2; settings: at 10 µM
[3] = test system: Leucine-rich repeat serine/threonine-protein kinase 2 (Homo sapiens), Q5S007 [G2019S]; experiment: as §1; settings: at 10 µM
[4] = biological target: T2, Aurora kinase C (Homo sapiens) (UniProt Q9UQB9); experiment: Selectivity interaction (ProQinase) EUB0000171b AURKC
T2 sequence (whole entry): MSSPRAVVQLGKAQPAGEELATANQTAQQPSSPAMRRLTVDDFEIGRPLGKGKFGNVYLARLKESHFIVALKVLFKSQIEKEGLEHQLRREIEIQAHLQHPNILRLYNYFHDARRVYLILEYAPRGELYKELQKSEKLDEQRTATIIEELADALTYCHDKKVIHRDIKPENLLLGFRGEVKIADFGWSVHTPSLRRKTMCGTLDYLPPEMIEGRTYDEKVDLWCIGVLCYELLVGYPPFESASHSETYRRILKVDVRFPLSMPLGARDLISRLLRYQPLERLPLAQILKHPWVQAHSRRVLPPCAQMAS

[5] = biological target: Serine/threonine-protein kinase mTOR (Homo sapiens, UniProt P42345); experiment: Selectivity interaction (KinomeScan (DiscoverX)) EUB0000595a MTOR; settings: at 10 µM
[6] = biological target: Serine/threonine-protein kinase tousled-like 2 (Homo sapiens) (UniProt Q86UE8); experiment: Selectivity interaction (KinomeScan (DiscoverX)) EUB0000595a TLK2; settings: at 10 µM
[7] = biological target: T3, Serine/threonine-protein kinase Chk1 (Homo sapiens) (UniProt O14757); experiment: Selectivity interaction (KinomeScan (DiscoverX)) EUB0001079a CHEK1; settings: at 1 µM
T3 sequence (whole entry): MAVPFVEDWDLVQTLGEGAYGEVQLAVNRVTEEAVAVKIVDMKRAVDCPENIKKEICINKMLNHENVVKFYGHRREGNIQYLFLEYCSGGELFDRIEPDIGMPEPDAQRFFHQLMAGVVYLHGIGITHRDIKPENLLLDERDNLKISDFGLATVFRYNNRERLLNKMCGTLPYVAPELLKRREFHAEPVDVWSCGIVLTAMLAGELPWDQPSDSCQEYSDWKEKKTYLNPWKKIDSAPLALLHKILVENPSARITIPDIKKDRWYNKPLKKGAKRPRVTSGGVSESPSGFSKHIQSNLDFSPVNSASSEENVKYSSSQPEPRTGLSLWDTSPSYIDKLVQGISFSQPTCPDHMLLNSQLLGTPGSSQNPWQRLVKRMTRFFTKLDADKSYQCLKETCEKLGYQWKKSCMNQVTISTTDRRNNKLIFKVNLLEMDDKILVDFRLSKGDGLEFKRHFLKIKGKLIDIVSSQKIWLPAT

[8] = biological target: Ribosomal protein S6 kinase alpha-3 (Homo sapiens, UniProt P51812); experiment: Selectivity interaction (Kinase panel (KiNativ target engagement assay in Jurkat cells)) EUB0001635a RPS6KA3; format: cell-based; settings: Selectivity number of off-targets 0.0, Selectivity number of targets 233.0, Source Knowledge https://www.sciencedirect.com/science/article/pii/S2451945619300674?via%3Dihub, at 1 µM
[9] = biological target: Histone-lysine N-methyltransferase 2C (Homo sapiens) (UniProt Q8NEZ4); experiment: Selectivity interaction (Transferase panel (protein, RNA, and DNA methyltransferases. and EP300 (acetyltransferase))) EUB0000270b MLL3; settings: at 10 µM
Chain of Histone-lysine N-methyltransferase 2C (Homo sapiens) (Q8NEZ4 whole entry): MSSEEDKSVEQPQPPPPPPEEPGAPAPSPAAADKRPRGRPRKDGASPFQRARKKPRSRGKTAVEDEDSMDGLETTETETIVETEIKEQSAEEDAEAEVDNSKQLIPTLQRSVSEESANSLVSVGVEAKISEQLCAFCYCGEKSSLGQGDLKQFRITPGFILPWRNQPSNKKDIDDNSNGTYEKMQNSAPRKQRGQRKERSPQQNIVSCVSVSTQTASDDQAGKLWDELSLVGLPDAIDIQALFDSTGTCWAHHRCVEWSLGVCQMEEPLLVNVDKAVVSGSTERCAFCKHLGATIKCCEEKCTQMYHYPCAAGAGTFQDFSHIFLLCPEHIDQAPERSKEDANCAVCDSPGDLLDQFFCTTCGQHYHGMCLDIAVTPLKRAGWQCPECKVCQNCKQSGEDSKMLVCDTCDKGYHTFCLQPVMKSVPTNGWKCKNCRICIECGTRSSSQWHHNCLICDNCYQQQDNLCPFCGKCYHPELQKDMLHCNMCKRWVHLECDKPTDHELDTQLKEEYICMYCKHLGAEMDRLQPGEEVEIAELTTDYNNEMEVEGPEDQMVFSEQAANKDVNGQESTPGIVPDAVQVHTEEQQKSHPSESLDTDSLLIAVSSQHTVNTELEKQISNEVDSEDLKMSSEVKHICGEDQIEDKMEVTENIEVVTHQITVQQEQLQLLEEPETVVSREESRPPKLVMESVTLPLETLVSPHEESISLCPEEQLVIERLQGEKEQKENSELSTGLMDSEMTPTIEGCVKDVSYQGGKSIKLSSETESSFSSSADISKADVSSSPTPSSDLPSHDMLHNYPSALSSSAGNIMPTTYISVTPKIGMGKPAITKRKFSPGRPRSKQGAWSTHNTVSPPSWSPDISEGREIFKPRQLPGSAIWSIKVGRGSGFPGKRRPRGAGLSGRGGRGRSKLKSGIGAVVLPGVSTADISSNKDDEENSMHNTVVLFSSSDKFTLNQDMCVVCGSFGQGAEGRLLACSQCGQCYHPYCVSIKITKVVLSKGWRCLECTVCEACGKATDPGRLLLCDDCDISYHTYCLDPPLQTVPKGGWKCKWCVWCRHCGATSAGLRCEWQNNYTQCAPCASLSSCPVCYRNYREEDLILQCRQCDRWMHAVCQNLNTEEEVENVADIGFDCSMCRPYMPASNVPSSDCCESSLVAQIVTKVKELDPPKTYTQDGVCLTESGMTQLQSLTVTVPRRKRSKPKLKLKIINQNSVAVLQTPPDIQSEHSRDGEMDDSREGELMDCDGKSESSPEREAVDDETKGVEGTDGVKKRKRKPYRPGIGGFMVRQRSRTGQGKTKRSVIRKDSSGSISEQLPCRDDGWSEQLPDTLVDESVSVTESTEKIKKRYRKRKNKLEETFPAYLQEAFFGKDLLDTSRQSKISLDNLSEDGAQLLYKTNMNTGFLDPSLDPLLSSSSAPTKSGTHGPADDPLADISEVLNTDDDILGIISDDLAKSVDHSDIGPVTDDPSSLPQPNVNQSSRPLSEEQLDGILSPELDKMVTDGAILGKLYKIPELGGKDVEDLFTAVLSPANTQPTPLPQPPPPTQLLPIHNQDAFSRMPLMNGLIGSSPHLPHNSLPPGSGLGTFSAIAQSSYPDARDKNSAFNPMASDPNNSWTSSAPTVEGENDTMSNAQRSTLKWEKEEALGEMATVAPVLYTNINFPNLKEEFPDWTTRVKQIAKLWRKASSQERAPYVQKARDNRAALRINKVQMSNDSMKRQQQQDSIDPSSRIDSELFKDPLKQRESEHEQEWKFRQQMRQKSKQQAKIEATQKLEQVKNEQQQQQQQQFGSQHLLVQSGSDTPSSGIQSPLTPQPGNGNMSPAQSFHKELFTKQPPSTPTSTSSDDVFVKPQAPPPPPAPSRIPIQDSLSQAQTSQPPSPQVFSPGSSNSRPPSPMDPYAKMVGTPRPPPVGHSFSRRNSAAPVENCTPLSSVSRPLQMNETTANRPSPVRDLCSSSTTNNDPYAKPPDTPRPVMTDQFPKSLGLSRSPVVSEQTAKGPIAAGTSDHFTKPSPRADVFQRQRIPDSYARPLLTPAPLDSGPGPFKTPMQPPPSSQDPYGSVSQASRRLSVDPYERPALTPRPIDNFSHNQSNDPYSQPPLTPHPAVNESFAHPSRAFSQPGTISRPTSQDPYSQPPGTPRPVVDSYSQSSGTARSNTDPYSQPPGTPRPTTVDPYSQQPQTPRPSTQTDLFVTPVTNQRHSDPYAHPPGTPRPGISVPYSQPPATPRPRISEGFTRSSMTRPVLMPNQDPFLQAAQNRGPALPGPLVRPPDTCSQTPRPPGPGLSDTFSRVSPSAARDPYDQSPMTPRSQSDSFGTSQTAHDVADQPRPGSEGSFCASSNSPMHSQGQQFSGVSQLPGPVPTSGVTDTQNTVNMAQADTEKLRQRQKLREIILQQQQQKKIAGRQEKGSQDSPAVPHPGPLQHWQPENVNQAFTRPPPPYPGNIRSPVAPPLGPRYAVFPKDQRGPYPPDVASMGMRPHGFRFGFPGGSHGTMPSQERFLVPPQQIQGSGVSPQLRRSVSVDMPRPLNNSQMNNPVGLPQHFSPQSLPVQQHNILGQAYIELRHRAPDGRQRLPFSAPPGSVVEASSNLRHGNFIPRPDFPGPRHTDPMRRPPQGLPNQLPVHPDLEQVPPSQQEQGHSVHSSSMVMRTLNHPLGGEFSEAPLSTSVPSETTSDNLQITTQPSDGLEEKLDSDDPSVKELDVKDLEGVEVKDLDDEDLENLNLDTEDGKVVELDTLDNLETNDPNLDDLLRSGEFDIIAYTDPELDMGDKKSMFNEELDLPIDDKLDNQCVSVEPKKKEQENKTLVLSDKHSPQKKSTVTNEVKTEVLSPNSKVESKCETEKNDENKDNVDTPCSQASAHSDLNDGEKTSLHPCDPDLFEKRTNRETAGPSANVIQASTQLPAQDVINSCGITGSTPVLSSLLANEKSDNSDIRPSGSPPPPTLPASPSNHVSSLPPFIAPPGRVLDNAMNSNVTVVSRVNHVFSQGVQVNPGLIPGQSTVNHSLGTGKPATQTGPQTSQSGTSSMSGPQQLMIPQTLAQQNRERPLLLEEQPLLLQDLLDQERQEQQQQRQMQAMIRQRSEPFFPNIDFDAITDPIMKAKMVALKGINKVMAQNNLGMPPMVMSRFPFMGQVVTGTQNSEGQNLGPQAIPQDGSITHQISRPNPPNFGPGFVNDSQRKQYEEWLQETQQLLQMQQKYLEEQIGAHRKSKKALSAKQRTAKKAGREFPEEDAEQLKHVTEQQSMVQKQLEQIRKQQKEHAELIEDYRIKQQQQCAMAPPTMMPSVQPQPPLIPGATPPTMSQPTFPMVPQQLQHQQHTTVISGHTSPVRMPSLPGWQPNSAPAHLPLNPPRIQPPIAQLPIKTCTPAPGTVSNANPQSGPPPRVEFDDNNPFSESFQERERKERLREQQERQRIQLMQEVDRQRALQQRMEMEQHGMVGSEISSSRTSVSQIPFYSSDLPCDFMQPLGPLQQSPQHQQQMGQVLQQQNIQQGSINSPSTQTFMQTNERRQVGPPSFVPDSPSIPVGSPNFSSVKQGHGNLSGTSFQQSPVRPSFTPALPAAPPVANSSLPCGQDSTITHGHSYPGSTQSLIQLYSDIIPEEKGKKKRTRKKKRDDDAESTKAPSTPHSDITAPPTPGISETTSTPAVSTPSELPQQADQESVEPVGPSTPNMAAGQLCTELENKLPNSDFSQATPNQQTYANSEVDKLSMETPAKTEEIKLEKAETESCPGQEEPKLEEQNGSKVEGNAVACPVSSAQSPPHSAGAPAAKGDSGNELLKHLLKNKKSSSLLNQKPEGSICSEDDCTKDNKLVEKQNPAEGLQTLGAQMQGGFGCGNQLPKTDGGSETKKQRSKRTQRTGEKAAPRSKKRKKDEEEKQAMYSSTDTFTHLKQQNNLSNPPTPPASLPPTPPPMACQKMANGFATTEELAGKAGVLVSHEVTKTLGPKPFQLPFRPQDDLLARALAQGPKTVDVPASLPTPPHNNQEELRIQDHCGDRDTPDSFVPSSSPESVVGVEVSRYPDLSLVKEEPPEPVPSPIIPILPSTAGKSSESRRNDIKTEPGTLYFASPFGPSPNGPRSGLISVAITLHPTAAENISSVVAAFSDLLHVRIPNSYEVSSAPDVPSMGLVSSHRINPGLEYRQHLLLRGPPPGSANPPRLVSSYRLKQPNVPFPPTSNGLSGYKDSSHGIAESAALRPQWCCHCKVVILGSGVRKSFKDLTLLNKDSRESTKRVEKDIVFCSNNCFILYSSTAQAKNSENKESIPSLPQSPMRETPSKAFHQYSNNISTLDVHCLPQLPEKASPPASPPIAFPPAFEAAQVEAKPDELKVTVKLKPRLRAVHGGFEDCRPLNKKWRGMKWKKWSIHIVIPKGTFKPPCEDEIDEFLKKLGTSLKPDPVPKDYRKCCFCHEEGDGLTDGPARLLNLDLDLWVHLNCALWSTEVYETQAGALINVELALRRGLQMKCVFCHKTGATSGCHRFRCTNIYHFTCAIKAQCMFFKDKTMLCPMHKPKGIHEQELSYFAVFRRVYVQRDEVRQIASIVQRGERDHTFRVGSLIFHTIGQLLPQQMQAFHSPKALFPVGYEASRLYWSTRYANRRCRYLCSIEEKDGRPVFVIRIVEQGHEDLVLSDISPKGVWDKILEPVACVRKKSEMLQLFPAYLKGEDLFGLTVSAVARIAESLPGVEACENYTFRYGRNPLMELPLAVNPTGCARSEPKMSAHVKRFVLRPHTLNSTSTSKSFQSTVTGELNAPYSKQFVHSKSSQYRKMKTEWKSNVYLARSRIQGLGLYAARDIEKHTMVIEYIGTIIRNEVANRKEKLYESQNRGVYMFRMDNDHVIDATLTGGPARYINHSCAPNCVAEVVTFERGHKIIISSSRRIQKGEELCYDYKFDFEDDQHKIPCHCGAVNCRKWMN

[10] = biological target: Ribosomal protein S6 kinase alpha-6 (Homo sapiens, UniProt Q9UK32); experiment: Selectivity interaction (KinomeScan (DiscoverX)) EUB0000229b RPS6KA6; settings: at 10 µM
[11] = biological target: T4, Discoidin domain-containing receptor 2 (Homo sapiens) (UniProt Q16832); experiment: Selectivity interaction (KinomeScan (DiscoverX)) EUB0000092b DDR2; settings: at 10 µM
T4 sequence (whole entry): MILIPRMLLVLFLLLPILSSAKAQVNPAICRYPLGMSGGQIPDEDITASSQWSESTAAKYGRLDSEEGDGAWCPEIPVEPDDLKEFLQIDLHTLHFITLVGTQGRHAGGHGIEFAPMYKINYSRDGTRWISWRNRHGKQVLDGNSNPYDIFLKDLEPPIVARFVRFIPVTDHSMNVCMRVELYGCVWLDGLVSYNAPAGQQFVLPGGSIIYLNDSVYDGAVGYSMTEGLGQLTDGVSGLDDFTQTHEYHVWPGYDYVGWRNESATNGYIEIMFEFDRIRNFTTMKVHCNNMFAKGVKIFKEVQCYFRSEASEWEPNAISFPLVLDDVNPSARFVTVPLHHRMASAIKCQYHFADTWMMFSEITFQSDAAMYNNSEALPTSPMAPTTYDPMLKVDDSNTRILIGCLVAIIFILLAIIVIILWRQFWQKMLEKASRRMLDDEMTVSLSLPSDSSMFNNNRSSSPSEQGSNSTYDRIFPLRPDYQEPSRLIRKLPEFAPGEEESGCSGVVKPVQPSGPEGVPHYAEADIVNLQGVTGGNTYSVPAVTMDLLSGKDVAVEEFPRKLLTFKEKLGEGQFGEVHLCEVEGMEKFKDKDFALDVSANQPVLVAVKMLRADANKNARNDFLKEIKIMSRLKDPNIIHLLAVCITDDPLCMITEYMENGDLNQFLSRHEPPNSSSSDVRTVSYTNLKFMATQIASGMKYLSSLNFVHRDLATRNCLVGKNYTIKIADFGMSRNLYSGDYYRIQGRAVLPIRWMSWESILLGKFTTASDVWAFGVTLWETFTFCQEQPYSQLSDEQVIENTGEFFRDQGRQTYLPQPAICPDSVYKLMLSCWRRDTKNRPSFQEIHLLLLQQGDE

SMILES: O=C(NOC[C@H](O)CO)c1ccc(F)c(F)c1Nc1ccc(I)cc1F
% of control [1]: 80%

SMILES: CNC(=O)Nc1ccc(-c2nc(N3CC4CCC(C3)O4)c3cnn(C4CCC5(CC4)OCCO5)c3n2)cc1
% of control [2]: 82%
% of control [3]: 65%

% of control ([4]; at 1 µM): 86%
% of control ([4]; at 5 µM): 57%
SMILES: C=CC(=O)Nc1cccc(C(=O)Nc2ccc(Nc3cc(-c4[nH]c(SC)nc4C)ccn3)cc2)c1

SMILES: COCC(=O)NC/C=C/c1ccc2ncnc(Nc3ccc(Oc4ccc(C)nc4)c(C)c3)c2c1 [CP-724714]
% of control [5]: 79%
% of control [6]: 100%

SMILES: Nc1cnc(N2CCc3cc(S(=O)(=O)Nc4c(F)cc(Cl)cc4F)cc(N4CCCC4=O)c32)nc1 [TP-020n]
% of control [7]: 95%

SMILES: C=CC(=O)Nc1ccc(C(=O)Nc2[nH]nc3c2CN(C(=O)N[C@H](CN(C)C)c2ccccc2)C3(C)C)cc1
% of engagement [8]: 13.1%

% activity [9]: > 80%
SMILES: Cc1cc(CN)cc(C)c1-c1ncn(C)c1-c1cncn1C

SMILES: COc1cc(N(C)c2ccnc3ccc(C(F)(F)F)cc23)cc(OC)c1OC
% binding [10]: 74%

SMILES: CCC(=O)N1CCN(c2ccc(-n3c(=O)ccc4cnc5ccc(-c6cnc7ccccc7c6)cc5c43)cc2C(F)(F)F)CC1
% of control [11]: 100%
